# Reference: ChEMBL document CHEMBL1157265, “Chaetoglobosin U, a cytochalasan alkaloid from endophytic Chaetomium globosum IFB-E019” (J Nat Prod, 2006)
# System: KB
# Test: Cytotoxicity against human KB cells after 48 hrs by MTT assay
# Assay type: functional, cell-based
row,SMILES,IC50 [µM]
1,C/C1=C\[C@@H](C)C/C=C/[C@H]2[C@@H]3O[C@]3(C)[C@@H](C)[C@H]3[C@H](Cc4c[nH]c5ccccc45)NC(=O)[C@]32C(=O)CCC(=O)C1=O [CHAETOGLOBOSIN C],34
2,CC1=C(C)[C@H]2[C@H](Cc3c[nH]c4ccccc34)NC(=O)[C@]23C(=O)CC[C@H](O)C(=O)/C(C)=C/[C@@H](C)C/C=C/[C@H]3[C@@H]1O [CHAETOGLOBOSIN E],40
3,C/C1=C\[C@@H](C)C/C=C/[C@H]2[C@@H]3O[C@]3(C)[C@@H](C)[C@H]3[C@H](Cc4c[nH]c5ccccc45)NC(=O)[C@]32C(=O)CC[C@H](O)C1=O [CHAETOGLOBOSIN F],52
4,CC1=C(O)C(=O)[C@@H]2CC(=O)[C@@]34C(=O)N[C@@H](Cc5c[nH]c6ccccc56)[C@@H]3[C@H](C)[C@@]3(C)O[C@H]3[C@@H]4/C=C/C[C@H](C)[C@@H]12 [CHAETOGLOBOSIN U],16
5,C/C1=C\[C@@H](C)C/C=C/[C@H]2[C@@H]3O[C@]3(C)[C@@H](C)[C@H]3[C@H](Cc4c[nH]c5ccccc45)NC(=O)[C@]32c2ccc([nH]2)C(=O)C1=O [PENOCHALASIN A],48
